Reference: patent US12673963B2, “Cationic lipids for lipid nanoparticle delivery of therapeutics to hepatic stellate cells” (GENEVANT SCIENCES GMBH, priority 2020, dated 2026)

How the values were obtained:
[1] = tested on: reelin mRNA; experiment: Reelin mRNA knock-down following IV administration of the LNP formulations (FIGS. 1-4); type: in vivo; conditions: Balb/C mice (n=4); for dose giving equivalent potency in reelin mRNA knock-down (FIG. 1) / reelin mRNA knock-down in HSCs, specificity for HSCs (FIG. 2): 48 hours following IV administration
Method: (§1) The lipid solution contained 4 components: a PEG-conjugated lipid, an ionizable lipid (e.g., a silicon lipid), cholesterol, and a phospholipid (e.g., DSPC). Lipid stocks were prepared using the lipid identities and molar ratios as described. The siRNA was diluted in 100 mM acetate, pH 4 buffer to prepare lipid nanoparticles (LNP) at a total lipid to siRNA weight ratio of approximately 10:1 to 20:1. Equal volumes of the lipid and nucleic acid solutions were blended at a flow rate of 400 mL/min through a T-connector, and diluted into PBS, pH 7.4. The ethanol was then removed and the external buffer replaced with Tris/NaCl buffer by dialysis. Following dialysis, the formulations were concentrated using VivaSpin concentrator units (MWCO 100,000) and filtered through a 0.2 μm pore sterile filter. Nucleic acid concentration was determined by the RiboGreen assay. Particle size and polydispersity were determined using a Malvern Nano Series Zetasizer.
(§2) Generally, the LNP formulations were injected intravenously at 0.025 mg/kg to female Balb/C mice (5-8 weeks old) to measure activity of the HSC-LNP. Just prior to injection, the siRNA LNP stocks were filtered and diluted down to the required dosing concentration. At 48h post-dose (terminal timepoint), the animals were euthanized with a lethal dose of ketamine/xylazine. Half the left lateral lobe of the liver was collected into 1.5 mL RNALater and stored at 2-8° C. overnight. The next day, an approximately 20-25 mg piece of liver was homogenized and the liver lysate used in a QuantiGene Assay, testing for relative levels of mouse target mRNA and GAPDH expression. Data from each animal was normalized to the liver weight used in the assay, and then relative to the GAPDH signal; data is reported as the average % knock-down of each group (where the PBS control group is 100% gene expression, 0% knock-down).

[2] = Tolerability assessment of HSC-LNP: liver enzyme levels (FIGS. 5A-5B); type: in vivo, female Balb/C mice; conditions: dose range up to 3 mg/kg IV
Method: Generally, the LNP formulations were injected intravenously at ˜0.03 to 3 mg/kg to female Balb/C mice (5-8 weeks old) to assess tolerability of the HSC-LNP. Just prior to injection, the siRNA LNP stocks were filtered and diluted down to the required dosing concentration. At 2h post-treatment, blood was collected via tail nicks and processed to plasma (for cytokine analysis by ELISA). At the terminal timepoint (24 h post-dose), blood was collected by cardiac puncture (target ≥800 μL) and sent to IDEXX for CRES 15 panel analysis (CBC/Diff & Clin Chem analysis).
Briefly, blood (˜300 uL) was collected into EDTA microtainer tubes, inverted 10× to mix the K2EDTA whole blood sample, and immediately stored at 4° C. to await same-day shipment to for hematology analysis. The remaining blood volume (˜500 uL) was collected into serum separator tubes and inverted 5× to mix the SST sample, then allowed to clot for 1-1.5h at room temp. The blood samples were centrifuged, and serum was collected for clinical chemistry analysis.

[3] = Duration of action of LNP with minimally modified siRNA (FIG. 6); type: in vivo
[4] = Clearance of LNP from mouse liver, biodegradable functionality (FIG. 7); type: in vivo
[5] = tested on: mouse target mRNA; experiment: Activity assessment of HSC-LNP: liver target mRNA knock-down (QuantiGene) after IV injection of siRNA LNP (Table 1); type: in vivo, female Balb/C mice; conditions: dose 0.025 mg/kg IV, 48h post-dose, relative to PBS control
Method: as §1
as §2, with “Just” for “Generally, the LNP formulations were injected intravenously at 0.025 mg/kg to female Balb/C mice (5-8 weeks old) to measure activity of the HSC-LNP. Just”

[6] = 24 hours following IV administration

For `CCCCC/C=C\CCCO[Si](C)(CCCCN(C)CCCN(C)CCCC[Si](C)(OCCC/C=C\CCCCC)OCCC/C=C\CCCCC)OCCC/C=C\CCCCC` [Compound 12, N1,N3-bis(4-(bis(((Z)-dec-4-en-1-yl)oxy)(methyl)silyl)butyl)-N1,N3-dimethylpropane-1,3-diamine], the “dose at which maximum knock-down in HSCs is achieved (FIG. 3)” value [1, 6] was “about 0.03 mg/kg”, the “dose required to achieve equivalent reelin mRNA knock-down (FIG. 4)” value [1, 6] was 0.03 mg/kg and the “dose giving equivalent potency in reelin mRNA knock-down (FIG. 1)” value [1] was 0.025 mg/kg. The “reelin mRNA knock-down in HSCs, specificity for HSCs (FIG. 2)” value [1] was “high specificity for HSCs”, the “tolerability: liver enzyme levels (FIGS. 5A-5B)” value [2] was “no significant increases in liver enzyme levels” and the “duration of action (FIG. 6)” value [3] was “good duration of action”. For the same compound, the “clearance of LNP from mouse liver (FIG. 7)” value [4] was “cleared rapidly from mouse liver”.
`CCCCC/C=C\CCCO[Si](C)(CCCCN1CCC2(CC1)CCN(CCCC[Si](C)(OCCC/C=C\CCCCC)OCCC/C=C\CCCCC)CC2)OCCC/C=C\CCCCC` [Compound 14] showed a Percent knock-down ([5]; Formulation 1.1:55 (DOPE)) of 18%.
Compound `CCCCC/C=C\CCCO[Si](C)(CCCCN(CC)CCCN(CC)CCCC[Si](C)(OCCC/C=C\CCCCC)OCCC/C=C\CCCCC)OCCC/C=C\CCCCC` [Compound 29] has a Percent knock-down ([5]; Formulation 1.1:55 (DSPC)) of 29%.
`CCCCC/C=C\CCCO[SiH](CCCCN1CCN(C)CCN(CCCC[Si](C)(OCCC/C=C\CCCCC)OCCC/C=C\CCCCC)CC1)OCCC/C=C\CCCCC` [Compound 38] gave a Percent knock-down ([5]; Formulation 1.5:50 (DSPC)) of 1%.
In the case of `CCCCC/C=C\CCCO[Si](C)(CCCCN1CCC2(CC1)CCN(CCCC[Si](C)(OCCC/C=C\CCCCC)OCCC/C=C\CCCCC)C2)OCCC/C=C\CCCCC` [Compound 39], the Percent knock-down ([5]; Formulation 1.5:50 (DSPC)) is reported as 81%.
Work on `CCCCC/C=C\CCCO[Si](C)(CCCCN1CCC2(CC1)CCN(CCCC[Si](C)(OCCC/C=C\CCCCC)OCCC/C=C\CCCCC)CC2)OCCC/C=C\CCCCC` [Compound 42] yielded a Percent knock-down ([5]; Formulation 1.5:50 (DSPC)) of 28%.
Compound `CCCCC/C=C\CCCO[Si](C)(CCCCN1C[C@H]2CCCN(CCCC[Si](C)(OCCC/C=C\CCCCC)OCCC/C=C\CCCCC)[C@H]2C1)OCCC/C=C\CCCCC` [Compound 43] has a Percent knock-down ([5]; Formulation 1.5:50 (DSPC)) of 0%.
With `CCCCC/C=C\CCCC(CCC/C=C\CCCCC)C(CCC/C=C\CCCCC)OC(=O)CCCCCN(C)C` (stereo not shown) [Compound 100, reference compound] the “dose required to achieve equivalent reelin mRNA knock-down (FIG. 4)” value [1, 6] was roughly 1 mg/kg and the “dose giving equivalent potency in reelin mRNA knock-down (FIG. 1)” value [1] was 0.1 mg/kg.
With `CCCCC/C=C\CCCC(CCC/C=C\CCCCC)C(CCC/C=C\CCCCC)OC(=O)CCCCN(C)C` (stereo not shown) [Compound 101, reference compound] the “reelin mRNA knock-down in HSCs, specificity for HSCs (FIG. 2)” value [1] was “no knock-down in HSCs”.
